Laboratory results as given in a melting point compilation (Tetko et al.; mined from patent text by program, amines drawn as free bases though some values may be those of a salt).

| SMILES | melting point |
| --- | --- |
| C=C(C)COc1ccc(C(=O)C=Cc2cccc(OC)c2)c(O)c1 | 97 to 100 °C |
| COCC1CN(c2ccc(C3=CCCCC3)cc2)C(=O)O1 (racemic) | 106 to 108 °C |
| O=C(O)CCCCCCCCn1cc(-c2ccccc2)c(-c2ccccc2)nc1=O | 120 to 123 °C |
| O=C(CCC#Cc1cccc(CF)n1)Nc1ccc(F)cc1 | 110 °C |
| CCOC(=O)C(OS(N)(=O)=O)c1ccccc1 (configuration not stated) | 91 to 93 °C |
| O=C(O)CCc1cn(Cc2ccc(OCc3noc(-c4ccccc4)n3)cc2)nc1-c1ccccc1 | 166 to 167 °C |
| Cc1c(C(=O)Nc2ccc(N3CCC(N4CCOCC4)CC3)c(C(F)(F)F)c2)cnn1-c1ccc(Cl)cc1 | 193 to 194 °C |
| O=C(Nc1cccnc1)N1CCN(c2nccc(-c3ccc(F)cc3)n2)CC1 | 233 to 234 °C |
| C(#Cc1ccc(-c2nc3ccccc3s2)cc1)c1ccccc1 | 172 to 173 °C |
| CCN(CC)C(=O)n1cc(Cc2ccc(C(=O)NS(=O)(=O)c3ccccc3C)cc2OC)c2cc(C(=O)NCC(C)CC(F)(F)F)ccc21 (configuration not stated) | 153 to 154 °C |
| C=CCOC(=O)c1[nH]c2cc(Cl)cc(Cl)c2c1C=C1NC(=O)N(c2ccccc2)C1=O | > 250 °C |
| CC(C)OC(=O)CCC(=O)c1ccc(-c2ccccc2F)cc1 | 65 to 66 °C |
| CC(=O)NCCCCC(=O)OC1c2ccccc2C(=O)N1c1ccc2ccc(Cl)nc2n1 (configuration not stated) | 185 °C |
| Cc1cc(C(O)=S)cc(N)c1C(=O)c1ccccc1 | 158 to 159 °C |
| CCC1(C(=O)C(C(O)C(Cl)(Cl)Cl)n2cncn2)CCCC1 (configuration not stated) | 194 to 196 °C |
| CCCCOc1cc([N+](=O)[O-])c(OCCCC)cc1N=NN1CCOCC1 | 79 to 81 °C |
| Cc1cccc2nc3n(c(=O)c12)-c1ccccc1C3=O | 304 to 307 °C |
| O=C(CCc1cccnc1)c1ccccc1 | 86 to 87 °C |
| O=C(O)c1ccc(OCCn2ccnc2)c(Cl)c1 | 204 °C |
| O=[N+]([O-])c1cc(OCc2ccccc2)ccc1CCBr | 30 to 34 °C |
| Cc1cc(Cn2cc(C3c4ccccc4C=Cc4ccccc43)c(=S)[nH]c2=O)cc(C(=O)O)c1 | > 240 °C |
| C[C@H](CN(O)C(N)=O)NC(=O)c1cccc(Oc2ccccc2)c1 | 154 °C |
| NC(=O)c1ccc(O)c(I)c1 | 90 to 95 °C |
| Cc1cc(C)nc(NC(=O)N(C)C)c1 | 105 to 108 °C |

| SMILES | melting point |
| --- | --- |
| Cc1cc(-n2ccnc2)c2cccc(OCc3c(Cl)ccc(S(=O)(=O)N4CCC[C@H]4C(=O)NCC4CCN(Cc5ccccn5)CC4)c3Cl)c2n1 | 100 °C |
| COc1ccc(C2=C(c3ccc(S(C)(=O)=O)cc3)C(C)(C)OC2=O)cc1 | 148 °C |
| CN1CCN(c2ccccc2C=C2CCCN(c3ccc(Cl)cc3)C2=O)CC1 | 177 to 178 °C |
| O=C(c1ccccc1[N+](=O)[O-])N1CCCc2ccccc21 | 155 °C |
| CCOC(=O)c1nc(C)n2c1CN=C(c1ccccc1Cl)c1cc(Cl)ccc1-2 | 214 to 215 °C |
| O=c1[nH]c2cccnc2o1 | 252 °C |
| O=Cc1cccc(-c2nnn[nH]2)c1 | 185 to 189 °C |
| CCCCC1CCC(CC(=O)c2ccc(-c3ccc(CC(C)CC)cc3F)cc2)CC1 (single isomer, unassigned; (+)) | 71.4 to 72.1 °C |
| CCOC(=O)c1cnn(-c2ccccc2[N+](=O)[O-])c1C(=O)OCC | 45 to 46 °C |
| O=C(Nc1ccccc1)OCc1cn(-c2cc3cc(C(=O)O)c(=O)[nH]c3cc2[N+](=O)[O-])cn1 | > 300 °C |
| O=Cc1cc([N+](=O)[O-])ccc1Sc1ccccc1 | 96 to 100 °C |
| O=[N+]([O-])c1c(NCCO)cccc1NCCO | 103 to 104 °C |
| CC(C)(C)OC(=O)c1ncn2c1[C@@H]1CCCN1C(=O)c1c-2cccc1C(F)(F)F | 201 to 203 °C |
| CC(Oc1cc(-c2ccccc2)nc2ccccc12)C(=O)N1CCSCC1 (configuration not stated) | 198 °C |
| CS(=O)(=O)c1ccc(-c2oc(CCC(=O)O)nc2-c2ccc(F)cc2)cc1 | 197 to 198 °C |
| CC=CN1C(=O)CN(c2ccccc2)C1=S | 74 °C |
| COc1cccc(N2CCN(C[C@H](CC3CCCCC3)NC(=O)C3CCCCC3)CC2)n1 | 107 to 109 °C |
| CC(C)CN1CCS(=O)(=O)c2sc(S(N)(=O)=O)cc2C1 | 149 to 151 °C |
| COCCOc1ccc(/C=C/C(=O)NS(=O)(=O)NCCc2ccccc2)c(Oc2ncc(C(F)(F)F)cc2Cl)c1 | 85 to 85.5 °C |
| COC(=O)C(=O)c1ccc(OCCOc2ccc(S(N)(=O)=O)cc2)cc1 | 136 to 137 °C |
| Fc1ccc(Cn2c(NC3CCN(CCc4cccs4)CC3)nc3ccccc32)cc1 | 152 °C |
| C#CCOc1ccc(C(=O)C=Cc2cccs2)c(O)c1 | 83 to 85 °C |
| N#Cc1c(N)oc2c1CCCC2 | 179 °C |
| Cc1nccn1-c1nc(NCc2ccccc2)c2ccccc2n1 | 182 to 186 °C |

| SMILES | melting point |
| --- | --- |
| COc1cc2cc(C(=O)Nc3cc(NC(=O)OCc4ccccc4)c4ccccc4c3CCCl)[nH]c2c(OC)c1OC | 58 to 62 °C |
| Cn1ccnc1Sc1ccc(Nc2c(C#N)cnc3sccc23)cc1Cl | > 240 °C |
| CCCCCCc1ccc(-n2c(-c3ccc(CC(=O)O)cc3)ccc2-c2ccc(CC(=O)O)cc2)cc1 | 129 to 130 °C |
| CCOC(=O)C(Cc1ccc(C)c(C)c1)(NC(C)=O)C(=O)OCC | 107 to 109 °C |
| COc1cccc(NC(=O)c2cccs2)c1 | 139 to 145 °C |
| Cc1ccc(C=Cc2ccc(C#CC(C)N(O)C(N)=O)o2)cc1 (configuration not stated) | 174 °C |
| COc1nc(N)nc(OC)c1C1=NCCN1 | 230 °C |
| CNC(=O)C1=CC(CF)(CF)Oc2ccccc21 | 138 to 139 °C |
| O=C1Cc2ccccc2C(c2c(F)cccc2Cl)N1 (configuration not stated) | 249 to 252 °C |
| CCOC(=O)N1C=CC2=NC(C)=NC(N(C)c3ccccc3)N21 (configuration not stated) | 202 °C |
| COc1ccccc1[C@@]1(O)[C@H](O)CC(c2ccccc2)(c2ccccc2)[C@@H]2CN(C(=O)Cc3ccccc3N(C)C)C[C@@H]21 (racemic) | 175 to 177 °C |
| CC(C)(C)c1cc2ccccc2[nH]1 | 71 to 72 °C |
| O=c1c2cc(Cl)ccc2nc2n1CS(=O)(=O)N2 | > 300 °C |
| Cc1nc2nc(S(=O)(=O)Nc3c(Cl)cccc3Cl)nn2cc1Br | 215 to 216 °C |
| Cn1nc2c(N)nc3ccccc3c2c1CCCCNS(C)(=O)=O | 188 to 189 °C |
| CS(=O)(=O)NCCCCCCCCn1cnc2c(N)nc3ccccc3c21 | 153 to 155 °C |
| N#Cc1cc(F)c(NC(=O)C=C(N)C(F)(F)F)cc1F | 127 °C |
| C#CCNC(=O)c1ncn2c1CN(C)C(=O)c1sccc1-2 | 275 to 277 °C |
| NC(=O)c1ccc(N)nc1F | 236 to 237 °C |
| COC(=O)CCCCOc1ccc2nc3[nH]c(=O)n(C)c3cc2c1 | 223 to 225 °C |
| COc1ccc(Cn2c(=O)ccc3cnc(N4CCC[C@H]4CO)nc32)cc1Cl | 142 to 143 °C |
| COc1ccc(CCN2CCC(C(=O)c3csc4ccccc34)CC2)cc1 | 114 to 116 °C |
| Cc1c(-c2ccncc2)nc2n(c1=O)CCCN2 | 242 to 243 °C |
| CCOC(=O)c1ccc(NCCCc2ccccc2)cc1 | 80 to 83 °C |
